# Experimental data published in ChEMBL document CHEMBL1148294, “Synthesis, in vitro evaluation, and antileishmanial activity of water-soluble prodrugs of buparvaquone” (J Med Chem, 2004).
# Columns and labels:
# [1] = Distribution Coefficient at pH 3; format: physicochemical; settings: octanol/water
# [2] = Aqueous Solubility at pH 3; format: physicochemical
# Leishmania mexicana [3] = assay: Effective dose was determined for extracellular promastigotes of Leishmania mexicana LV4 at 72 h; format: functional; settings: read-out: ED50 (the source's name)
# Leishmania amazonensis [4] = assay: Effective dose was determined for extracellular promastigotes of Leishmania amazonensis LV81 at 72 h; format: functional; settings: read-out: ED50 (the source's name)
# [5] = Ionization constant (pKa) was determined; format: physicochemical
# Leishmania aethiopica [6] = assay: Effective dose was determined for extracellular promastigotes of Leishmania aethiopica Khartoum at 72 h; format: functional; settings: read-out: ED50 (the source's name)
# Leishmania mexicana [7] = assay: Effective dose was determined for extracellular promastigotes of Leishmania mexicana BEL21 at 72 h; format: functional; settings: read-out: ED50 (the source's name)
# Leishmania panamensis [8] = assay: Effective dose was determined for extracellular promastigotes of Leishmania panamensis BOYNTON at 72 h; format: functional; settings: read-out: ED50 (the source's name)
# Leishmania donovani [9] = assay: Effective dose was determined for intracellular amastigotes of Leishmania donovani L82 at 72 hr in infected macrophages at 37C (experiment 1); settings: read-out: ED50 (the source's name)
# [10] = Half-life for rate of hydrolysis was determined at pH 3; format: ADME; settings: buffer
# Leishmania aethiopica [11] = assay: Effective dose was determined for intracellular amastigotes of Leishmania aethiopica Khartoum at 72 hr in infected macrophages at 34C (experiment 1); format: functional; settings: read-out: ED50 (the source's name)
# Leishmania major [12] = assay: Effective dose was determined for extracellular promastigotes of Leishmania major JISH118 at 72 h; format: functional; settings: read-out: ED50 (the source's name)
# [13] = Distribution Coefficient at pH 7.4; format: physicochemical; settings: octanol/water
# [14] = Aqueous Solubility at pH 5; format: physicochemical
# Leishmania mexicana [15] = assay: Effective dose was determined for intracellular amastigotes of Leishmania mexicana LV4 at 72 hr in infected macrophages at 34 degree C (experiment 2); settings: read-out: ED50 (the source's name)
# [16] = Half-life for rate of hydrolysis was determined at pH 7.4; format: ADME; settings: buffer
# Leishmania panamensis [17] = assay: Effective dose was determined for intracellular amastigotes of Leishmania panamensis BOYNTON at 72 h in infected macrophages at 34 degree C (experiment 2); settings: read-out: ED50 (the source's name)
# Leishmania major [18] = assay: Effective dose was determined for intracellular amastigotes of Leishmania major JISH118 at 72 hr in infected macrophages at 34C (experiment 1); format: functional; settings: read-out: ED50 (the source's name)
# Leishmania mexicana [19] = assay: Effective dose was determined for intracellular amastigotes of Leishmania mexicana LV4 at 72 hr in infected macrophages at 34C (experiment 1); format: functional; settings: read-out: ED50 (the source's name)
# Leishmania amazonensis [20] = assay: Effective dose was determined for intracellular amastigotes of Leishmania amazonensis LV81 at 72 hr in infected macrophages at 34C (experiment 1); format: functional; settings: read-out: ED50 (the source's name)
# Leishmania panamensis [21] = assay: Effective dose was determined for intracellular amastigotes of Leishmania panamensis BOYNTON at 72 hr in infected macrophages at 34C (experiment 1); format: functional; settings: read-out: ED50 (the source's name)
# Leishmania donovani [22] = assay: Effective dose was determined for intracellular amastigotes of Leishmania donovani L82 at 72 hr in infected macrophages at 37 degree C (experiment 2); format: functional; settings: read-out: ED50 (the source's name)
# alkaline phosphatase = assay: Half-life for rate of hydrolysis was determined in alkaline phosphatase solution (pH 7.4); format: ADME
# Leishmania aethiopica [23] = assay: Effective dose was determined for intracellular amastigotes of Leishmania aethiopica Khartoum at 72 hr in infected macrophages at 34 degree C (experiment 2); settings: read-out: ED50 (the source's name)
# [24] = Half-life for rate of hydrolysis was determined in human skin homogenate (pH 7.4); format: ADME, tissue-based, Zone of skin
# Leishmania donovani [25] = assay: Effective dose was determined for extracellular promastigotes of Leishmania donovani L82 at 72 h; format: functional; settings: read-out: ED50 (the source's name)
# [26] = Distribution Coefficient at pH 5; format: physicochemical; settings: octanol/water
# [27] = Aqueous Solubility at pH 7.4; format: physicochemical
# Leishmania major [28] = assay: Effective dose was determined for intracellular amastigotes of Leishmania major JISH118 at 72 hr in infected macrophages at 34 degree C (experiment 2); settings: read-out: ED50 (the source's name)
# [29] = Half-life for rate of hydrolysis was determined at pH 5; format: ADME; settings: buffer
smiles,measurement,setting,value
CC(C)(C)C1CCC(CC2=C(OCOP(=O)(O)O)C(=O)c3ccccc3C2=O)CC1 (stereo not drawn),logD,[1],2.96
same,solubility,[2],> 3500 µg/mL
same,EC50,Leishmania mexicana [3],0.01 µM
same,EC50,Leishmania amazonensis [4],0.007 µM
same,pKa,[5],2.28
same,EC50,Leishmania aethiopica [6],0.057 µM
same,EC50,Leishmania mexicana [7],0.005 µM
same,EC50,Leishmania panamensis [8],0.12 µM
same,EC50,Leishmania donovani [9],1.25 µM
same,half-life,[10],97 h
same,EC50,Leishmania aethiopica [11],1.66 µM
same,EC50,Leishmania major [12],0.012 µM
same,logD,[13],1.16
same,solubility,[14],> 3500 µg/mL
same,EC50,Leishmania mexicana [15],2.51 µM
same,half-life,[16],0.5 h
same,EC50,Leishmania panamensis [17],1.19 µM
same,EC50,Leishmania major [18],0.81 µM
same,EC50,Leishmania mexicana [19],2.58 µM
same,EC50,Leishmania amazonensis [20],8.81 µM
same,EC50,Leishmania panamensis [21],< 1.12 µM
same,EC50,Leishmania donovani [22],1.22 µM
same,half-life,alkaline phosphatase,3.8 min
same,EC50,Leishmania aethiopica [23],3.99 µM
same,half-life,[24],0.175 h
same,EC50,Leishmania donovani [25],0.003 µM
same,logD,[26],1.83
same,solubility,[27],> 3500 µg/mL
same,EC50,Leishmania major [28],1.89 µM
same,half-life,[29],8 h
CC(C)(C)C1CCC(CC2=C(OP(=O)(O)O)C(=O)c3ccccc3C2=O)CC1 (stereo not drawn),logD,[1],1.87
same,solubility,[2],> 3500 µg/mL
same,EC50,Leishmania mexicana [3],0.039 µM
same,EC50,Leishmania amazonensis [4],0.024 µM
same,pKa,[5],2.68
same,EC50,Leishmania aethiopica [6],0.122 µM
same,EC50,Leishmania mexicana [7],0.024 µM
same,EC50,Leishmania panamensis [8],0.124 µM
same,EC50,Leishmania donovani [9],4.12 µM
same,half-life,[10],72 h
same,EC50,Leishmania aethiopica [11],2.33 µM
same,EC50,Leishmania major [12],0.064 µM
same,logD,[13]; read-out: logD,0.47
same,solubility,[14],> 3500 µg/mL
same,EC50,Leishmania mexicana [15],4.03 µM
same,half-life,[16],17 h
same,EC50,Leishmania panamensis [17],2.06 µM
same,EC50,Leishmania major [18],1.37 µM
same,EC50,Leishmania mexicana [19],7.03 µM
same,EC50,Leishmania amazonensis [20],15.7 µM
same,EC50,Leishmania panamensis [21],0.555 µM
same,EC50,Leishmania donovani [22],4.31 µM
same,half-life,alkaline phosphatase,1.2 min
same,EC50,Leishmania aethiopica [23],7.35 µM
same,half-life,[24],8.7 h
same,EC50,Leishmania donovani [25],0.009 µM
same,logD,[26],1.27
same,solubility,[27],> 3500 µg/mL
same,EC50,Leishmania major [28],6.27 µM
same,half-life,[29],50 h
CC(C)(C)[C@H]1CC[C@H](CC2=C(O)C(=O)c3ccccc3C2=O)CC1 [BUPARVAQUONE],logD,[1],7.02
same,solubility,[2],< 0.03 µg/mL
same,EC50,Leishmania mexicana [3],0.004 µM
same,EC50,Leishmania amazonensis [4],0.004 µM
same,pKa,[5],5.7
same,EC50,Leishmania aethiopica [6],0.013 µM
same,EC50,Leishmania mexicana [7],0.002 µM
same,EC50,Leishmania panamensis [8],0.042 µM
same,EC50,Leishmania donovani [9],0.48 µM
same,EC50,Leishmania aethiopica [11],0.633 µM
same,EC50,Leishmania major [12],0.001 µM
same,solubility,[14],< 0.03 µg/mL
same,EC50,Leishmania mexicana [15],1.25 µM
same,EC50,Leishmania panamensis [17],0.923 µM
same,EC50,Leishmania major [18],0.434 µM
same,EC50,Leishmania mexicana [19],1.44 µM
same,EC50,Leishmania amazonensis [20],5.5 µM
same,EC50,Leishmania panamensis [21],0.37 µM
same,EC50,Leishmania donovani [22],0.43 µM
same,EC50,Leishmania aethiopica [23],3.64 µM
same,EC50,Leishmania donovani [25],0.006 µM
same,solubility,[27],0.03 µg/mL
same,EC50,Leishmania major [28],1.8 µM
